The record followed here is patent US8633183B2 (priority 2010, dated 2014).

Each structure is given as a SMILES string.

PI3Kalpha, sequence (P42336 whole entry, looked up): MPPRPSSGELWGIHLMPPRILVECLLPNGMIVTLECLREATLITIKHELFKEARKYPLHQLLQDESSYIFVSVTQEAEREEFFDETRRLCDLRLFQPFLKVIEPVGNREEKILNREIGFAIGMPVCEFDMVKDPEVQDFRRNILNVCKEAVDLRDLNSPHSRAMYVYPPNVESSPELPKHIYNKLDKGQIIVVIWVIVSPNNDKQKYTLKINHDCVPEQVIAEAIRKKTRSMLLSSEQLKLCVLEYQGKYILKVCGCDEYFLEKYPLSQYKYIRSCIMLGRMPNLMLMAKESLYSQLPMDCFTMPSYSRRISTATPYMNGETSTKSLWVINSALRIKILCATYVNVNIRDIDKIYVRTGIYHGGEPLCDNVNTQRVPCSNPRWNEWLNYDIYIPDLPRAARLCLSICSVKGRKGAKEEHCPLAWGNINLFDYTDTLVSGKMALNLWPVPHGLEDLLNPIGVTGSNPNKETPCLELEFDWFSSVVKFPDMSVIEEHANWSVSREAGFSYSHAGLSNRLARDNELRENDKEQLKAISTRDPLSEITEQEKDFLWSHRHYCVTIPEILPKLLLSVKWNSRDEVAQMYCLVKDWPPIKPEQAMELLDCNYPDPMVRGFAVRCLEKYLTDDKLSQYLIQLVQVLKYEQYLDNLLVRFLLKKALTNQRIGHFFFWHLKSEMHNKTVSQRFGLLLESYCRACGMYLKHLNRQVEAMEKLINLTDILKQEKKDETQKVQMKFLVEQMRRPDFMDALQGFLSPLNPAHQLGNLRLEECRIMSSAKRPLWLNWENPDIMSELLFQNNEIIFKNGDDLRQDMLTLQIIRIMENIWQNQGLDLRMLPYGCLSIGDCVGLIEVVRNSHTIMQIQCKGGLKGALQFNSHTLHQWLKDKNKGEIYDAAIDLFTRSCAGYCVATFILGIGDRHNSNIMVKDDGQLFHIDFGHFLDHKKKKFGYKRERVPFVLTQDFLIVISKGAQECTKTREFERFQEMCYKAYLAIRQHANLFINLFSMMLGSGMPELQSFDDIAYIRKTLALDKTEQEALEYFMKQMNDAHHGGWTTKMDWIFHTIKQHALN

This assay concerns the target PI3Kalpha (Homo sapiens (Human), UniProt P42336). The settings on record: read-out: IC50 PI3K.
By IC50 is commonly meant the concentration that inhibits the measured activity by half. As for `CCc1ncnc(-c2ccc(C(=O)N3CCOCC3)c(F)c2)c1C#Cc1ccc(N)nc1` [Example D-239], the IC50 is 55 nM.

Turning to `CCc1ncnc(-c2ccc(C(=O)N3CCC(C(C)(C)O)CC3)c(OC)c2)c1C#Cc1ccc(N)nc1` [Example E-44], the IC50 amounted to 232 nM. To `CCc1ncnc(-c2ccc(C(=O)N(C)CCN3CCCC3=O)c(OC)c2)c1C#Cc1ccc(N)nc1` [Example E-65] belongs 88 nM; to `CCc1ncnc(-c2cc(F)c(C(=O)N3CCN(C(C)CO)CC3)c(F)c2)c1C#Cc1ccc(N)nc1` (stereo not shown) [Example E-299], 160 nM. As for `CCc1ncnc(-c2ccc(C(=O)N3CCOC4(CCN(C(=O)OC(C)(C)C)CC4)C3)c(F)c2)c1C#Cc1ccc(N)nc1` [Example E-325], the IC50 worked out at 1180 nM. To `CCc1ncnc(-c2ccc(C(=O)N3CCN(CC(F)(F)F)CC3)c(OC)c2)c1C#Cc1ccc(N)nc1` [Example D-54] belongs 81 nM. To `CCc1ncnc(-c2ccc(C(=O)N3CCN(Cc4cc(C)no4)CC3)c(F)c2)c1C#Cc1ccc(N)nc1` [Example E-290] belongs 200 nM. On to `CCc1ncnc(-c2cc(F)c(C(=O)N3CCN(C(C)C)CC3)c(F)c2)c1C#Cc1ccc(N)nc1` [Example E-2], for which the IC50 came out at 237 nM.

Consider `CCc1ncnc(-c2ccc(C(=O)N3CCC(N4CCOCC4)CC3)c(Cl)c2)c1C#Cc1ccc(NC)nc1` [Example E-185], for which the IC50 is 202 nM.

For `CCc1ncnc(-c2ccc(C)nc2)c1C#Cc1ccc(N)nc1` [Example C-31], the IC50 was 30 nM. As for `CCc1ncnc(-c2ccc(C(=O)N(C)O)c(Cl)c2)c1C#Cc1ccc(N)nc1` [Example D-153], the figure is 67 nM; as for `CCc1ncnc(-c2ccc(C(=O)N3CCC4(CCN(C)CC4)CC3)c(Cl)c2)c1C#Cc1ccc(N)nc1` [Example E-26], 498 nM; as for `CCc1ncnc(-c2ccc(C(=O)N(C)OC)c(Cl)c2)c1C#Cc1ccc(N)nc1` [Example E-79], 50 nM. As for `CON(C)C(=O)c1ccc(-c2ncnc(C)c2C#Cc2ccc(N)nc2)cc1F` [Example D-229], the figure is 65 nM; as for `CCc1ncnc(-c2cc(F)c(C(=O)N3CCN(C)CC3)c(F)c2)c1C#Cc1ccc(N)nc1` [Example E-1], 132 nM. With `CCc1ncnc(-c2ccc(C(=O)N(C)C)c(F)c2)c1C#Cc1ccc(N)nc1` [Example C-15A], the IC50 was found to be 57 nM. As for `CCc1ncnc(-c2ccc(C(=O)N3CCC(O)CC3)c(Cl)c2)c1C#Cc1ccc(N)nc1` [Example E-38], the figure is 52.9 nM; as for `CCc1ncnc(-c2ccc(C(=O)N(C)CCOC)c(F)c2)c1C#Cc1ccc(N)nc1` [Example D-7], 103 nM; as for `CCc1ncnc(-c2ccc(C(=O)N3CCCN(C)CC3)c(C)c2)c1C#Cc1ccc(N)nc1` [Example E-129], 237 nM. As to `CCNc1ccc(C#Cc2c(CC)ncnc2-c2ccc(C(=O)N3CCC4(CC3)COC4)c(F)c2)cn1` [Example E-263], the IC50 was 204 nM. As for `CCc1ncnc(-c2ccc(F)c(C(=O)N3CCOCC3)c2)c1C#Cc1ccc(N)nc1` [Example C-46], the figure is 226 nM. As for `CCc1ncnc(-c2cc(F)c(C(=O)N(C)C3CCN(C)CC3)c(F)c2)c1C#Cc1ccc(N)nc1` [Example E-176], the figure is 491 nM.
